Results from patent publication US6949542B2, “Dihydro-benzo[b][1,4]diazepin-2-one derivatives” (Hoffman-La Roche Inc., priority 2002, dated 2005).

Work on Cc1ccc(-c2cccc(C3=Nc4cc(OCC(F)(F)F)c(C(F)(F)F)cc4NC(=O)C3)c2)cn1 [Example 239, 4-[3-(6-Methyl-pyridin-3-yl)-phenyl]-7-(2,2,2-trifluoro-ethoxy)-8-trifluoromethyl-1,3-dihydro-benzo[b][1,4]diazepin-2-one] yielded a melting point of 159 °C.
Work on Cc1cc(-c2cccc(C3=Nc4cc(Cl)c(Cl)cc4NC(=O)C3)c2)cc(CO)n1 [Example 404, 7,8-Dichloro-4-[3-(2-hydroxymethyl-6-methyl-pyridin-4-yl)-phenyl]-1,3-dihydro-benzo[b][1,4]diazepin-2-one] yielded a melting point of 234 °C.
For Cc1cc2c(cc1C(F)(F)F)N=C(c1cccc(-c3ccncc3)c1)CC(=O)N2 [Example 64, 8-Methyl-4-(3-pyridin-4-yl-phenyl)-7-trifluoromethyl-1,3-dihydro-benzo[b][1,4]diazepin-2-one], the melting point was 217 °C.
For COc1cc2c(cc1C(F)(F)F)NC(=O)CC(c1cccc(-c3ccncc3)c1)=N2 [Example 35, 7-Methoxy-4-(3-pyridin-4-yl-phenyl)-8-trifluoromethyl-1,3-dihydro-benzo[b][1,4]diazepin-2-one], the melting point was 225 °C (dec.).
CN(C)c1cc2c(cc1C(F)(F)F)NC(=O)CC(c1cccc(-c3ccncn3)c1)=N2 [Example 298, 7-Dimethylamino-4-(3-pyrimidin-4-yl-phenyl)-8-trifluoromethyl-1,3-dihydro-benzo[b][1,4]diazepin-2-one] gave a melting point of 209 to 210 °C.
CCOc1cc2c(cc1C(F)(F)F)NC(=O)CC(c1cccc(-c3cc(C)ncc3CC)c1)=N2 [Example 152, 4-[3-(5-Ethyl-2-methyl-pyridin-4-yl)-phenyl]-7-ethoxy-8-trifluoromethyl-1,3-dihydro-benzo[b][1,4]diazepin-2-one] showed a melting point of 191 °C.
For Cc1nccc(-c2cccc(C3=Nc4cc(Cl)c(Cl)cc4NC(=O)C3)c2)n1 [Example 306, 7,8-Dichloro-4-[3-(2-methyl-pyrimidin-4-yl)-phenyl]-1,3-dihydro-benzo[b][1,4]diazepin-2-one], the melting point was 241 to 242 °C.
With O=C1CC(c2cccc(-c3ccnc(C4CCCC4)c3)c2)=Nc2ccc(C(F)(F)F)cc2N1 [Example 352, 4-[3-(2-Cyclopentyl-pyridin-4-yl)-phenyl]-8-trifluoromethyl-1,3-dihydro-benzo[b][1,4]diazepin-2-one] the melting point was 165 to 167 °C.
Work on Cc1cc(-c2cccc(C3=Nc4ccc(Cl)cc4NC(=O)C3)c2)ccn1 [Example 74, 8-Chloro-4-[3-(2-methyl-pyridin-4-yl)-phenyl]-1,3-dihydro-benzo[b][1,4]diazepin-2-one] yielded a melting point of 215 °C.
CC(C)CN(C)c1cc2c(cc1Cl)NC(=O)CC(c1cccc(-c3ccnc(CO)c3)c1)=N2 [Example 368, 8-Chloro-4-[3-(2-hydroxymethyl-pyridin-4-yl)-phenyl]-7-(isobutyl-methyl-amino)-1,3-dihydro-benzo[b][1,4]diazepin-2-one] gave a melting point of 161 °C.
Work on CCc1cc(-c2cccc(C3=Nc4cc(Cl)c(Cl)cc4NC(=O)C3)c2)ccn1 [Example 157, 7,8-Dichloro-4-[3-(2-ethyl-pyridin-4-yl)-phenyl]-1,3-dihydro-benzo[b][1,4]diazepin-2-one] yielded a melting point of 216 °C.
CCc1cc(-c2cccc(C3=Nc4cc(OCC(F)(F)F)c(C(F)(F)F)cc4NC(=O)C3)c2)ccn1 [Example 158, 4-[3-(2-Ethyl-pyridin-4-yl)-phenyl]-7-(2,2,2-trifluoro-ethoxy)-8-trifluoromethyl-1,3-dihydro-benzo[b][1,4]diazepin-2-one] gave a melting point of 232 °C.
In the case of Cc1cc2c(cc1C(F)(F)F)NC(=O)CC(c1cccc(-c3ccc(C4CC4)nc3)c1)=N2 [Example 167, 4-[3-(6-Cyclopropyl-pyridin-3-yl)-phenyl]-7-methyl-8-trifluoromethyl-1,3-dihydro-benzo[b][1,4]diazepin-2-one], the melting point is reported as 220 to 221 °C.
